Results taken from patent US10689414B2 (Agios Pharmaceuticals, Inc., priority 2013, dated 2020).

Tests used:
IDH1 R132C = IDH1 R132C (Homo sapiens (Human), UniProt O75874, R132C); test: In vitro NADPH depletion assay for IDH1m R132C inhibitors; assay type: biochemical; settings: IDH1 R132C enzyme, read-out: IDH R132C IC50
Method: (§1) A test compound is prepared as 10 mM stock in DMSO and diluted to 50× final concentration in DMSO, for a 50 μl reaction mixture. IDH enzyme activity converting alpha-ketoglutarate to 2-hydroxyglutaric acid is measured using a NADPH depletion assay. In the assay the remaining cofactor is measured at the end of the reaction with the addition of a catalytic excess of diaphorase and resazurin, to generate a fluorescent signal in proportion to the amount of NADPH remaining. […] The reaction is started with the addition of 10 μl of Substrate Mix ([…], 5 mM alpha-ketoglutarate, in Assay Buffer) and the mixture is incubated for 90 minutes at room temperature.
The concentration of NADPH and alpha-ketoglutarate in the Substrate Buffer is 20 μM and 1 mM, respectively.

IDH1 R132H = IDH1 R132H (Homo sapiens (Human), UniProt O75874, R132H); test: In vitro NADPH depletion assay for IDH1m R132H inhibitors; assay type: biochemical; settings: IDH1 R132H enzyme, read-out: IDH R132H IC50
IDH1 R132H, sequence (O75874 whole entry R132H): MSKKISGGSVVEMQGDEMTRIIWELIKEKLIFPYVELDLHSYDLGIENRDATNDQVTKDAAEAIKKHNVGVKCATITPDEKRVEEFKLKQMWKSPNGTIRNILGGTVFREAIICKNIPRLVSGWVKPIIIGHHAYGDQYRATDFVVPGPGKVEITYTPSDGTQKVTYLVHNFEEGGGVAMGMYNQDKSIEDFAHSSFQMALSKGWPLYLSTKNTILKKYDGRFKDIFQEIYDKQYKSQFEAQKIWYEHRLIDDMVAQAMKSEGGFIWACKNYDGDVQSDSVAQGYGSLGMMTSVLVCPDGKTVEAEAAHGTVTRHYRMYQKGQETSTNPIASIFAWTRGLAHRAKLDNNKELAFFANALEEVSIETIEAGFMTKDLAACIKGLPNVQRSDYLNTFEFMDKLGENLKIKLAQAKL
Method: as §1

U87MG cells = test: Cellular assay, inhibition of 2-HG production in U87MG cells; assay type: cell-based
In short: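 HT1080 or U87MG cells (U87MG kept with 500 ug/mL G418) seeded at 5000 cells/well and treated with compound at 0.2% final DMSO. Incubated 48 h at 37 °C. 2-HG inhibition determined by LC-MS. Viability read by CellTiter-Glo luminescence at 72 h post-dose.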

[1] = inhibition of 2-HG production, U87MG cells, 48 hours

IDH1 R132C, sequence (O75874 whole entry R132C): as the sequence (O75874 whole entry R132H) above, with H132C counted along it

| Molecule | IC50 (IDH1 R132C) [nM] | IC50 (IDH1 R132H) [nM] | IC50 (U87MG cells; [1]) [nM] | IC50 (U87MG cells; Homo sapiens, U-87 MG, 48 h) [nM] |
| --- | --- | --- | --- | --- |
| (S)-tert-butyl 3-(((S)-1-(2-chlorophenyl)-2-((3,3-difluorocyclobutyl) amino)-2-oxoethyl)(3,5-difluorophenyl)carbamoyl)-5-oxopiperazine-1-carboxylate [Compound 97] | < 100 | < 100 | < 100 |  |
| (S)—N—((S)-1-(2-Chlorophenyl)-2-((4,4-difluorocyclohexyl)amino)-2-oxoethyl)-3-(4-cyano-pyridin-2-yl)-N-(3-fluorophenyl)-2-oxooxazolidine-4-carboxamide [Compound 78] | < 100 | < 100 | < 100 |  |
| (S)—N—((S)-1-(2-Chlorophenyl)-2-(3,3-difluorocyclobutylamino)-2-oxoethyl)-1-(3-cyano-phenyl)-N-(1H-indazol-7-yl)-5-oxopyrrolidine-2-carboxamide [Compound 186] | < 100 | < 100 | < 100 |  |
| (S)—N—((S)-1-(2-Chlorophenyl)-2-(3,3-difluorocyclobutylamino)-2-oxoethyl)-N-(3-cyano-5-fluorophenyl)-3-(3-cyanophenyl)-2-oxooxazolidine-4-carboxamide [Compound 134] | < 100 | < 100 | < 100 |  |
| (2S)—N-(1-(2-Chlorophenyl)-2-((3,3-difluorocyclobutyl)amino)-2-oxoethyl)-1-(4-cyanopyridin-2-yl)-N-(3-fluoro-5-(methylsulfonyl)phenyl)-5-oxopyrrolidine-2-carboxamide [Compound 110] | < 100 | < 100 | < 100 |  |
| CC(C)(C)c1cccc(N(C(=O)[C@@H]2CCC(=O)N2c2nccc(C#N)n2)[C@H](C(=O)NC2CC(F)(F)C2)c2ccccc2Cl)c1 [Compound 165, (S)—N-(3-(tert-Butyl)phenyl)-N—((S)-1-(2-chlorophenyl)-2-((3,3-difluorocyclobutyl)amino)-2-oxoethyl)-1-(4-cyanopyrimidin-2-yl)-5-oxopyrrolidine-2-carboxamide] |  | < 100 |  | < 100 |
| N#Cc1ccnc(N2C(=O)CC[C@H]2C(=O)N(c2cc(F)cc(F)c2)[C@H](C(=O)NC2CC(F)(F)C2)c2ccccc2F)c1 [Compound 208, (S)-1-(4-Cyanopyridin-2-yl)-N—((S)-2-(3,3-difluorocyclobutylamino)-1-(2-fluorphenyl)-2-oxoethyl)-N-(3,5-difluorophenyl)-5-oxopyrrolidine-2-carboxamide] | < 100 | < 100 |  | < 100 |
| O=C(NC1CC(F)(F)C1)[C@H](c1ccccc1Cl)N(C(=O)[C@@H]1CCC(=O)N1c1ccncn1)c1cccc(F)c1 [Compound 22] | 100 to 500 | 100 to 500 |  |  |
| CS(=O)(=O)Nc1cccc(N(C(=O)[C@@H]2CCC(=O)N2c2cc(C#N)ccn2)[C@H](C(=O)NC2CC(F)(F)C2)c2ccccc2Cl)c1 [Compound 159, (S)—N—((S)-1-(2-Chlorophenyl)-2-(3,3-difluorocyclobutylamino)-2-oxoethyl)-1-(4-cyanopyridin-2-yl)-N-(3-(methylsulfonamido)phenyl)-5-oxopyrrolidine-2-carboxamide] |  |  |  | < 100 |
| CC(C)(O)c1cccc(N(C(=O)[C@@H]2CCC(=O)N2c2cc(C#N)ccn2)[C@H](C(=O)NC2CC(F)(F)C2)c2ccccc2Cl)c1 [Compound 179, (S)—N—((S)-1-(2C)-2-((3,3-difluorocyclobutyl)amino)-2-oxoethyl)-1-(4-cyanopyridin-2-yl)-N-(3-(2-hydroxypropan-2-yl)phenyl)-5-oxopyrrolidine-2-carboxamide] |  |  |  | < 100 |
| N#Cc1cc(C#N)cc(N(C(=O)[C@@H]2CCC(=O)N2c2cc(C#N)ccn2)[C@H](C(=O)NC2CC(F)(F)C2)c2ccccc2Cl)c1 [Compound 153, (S)—N—((S)-1-(2-Chlorophenyl)-2-((3,3-difluorocyclobutyl)amino)-2-oxoethyl)-1-(4-cyanopyridin-2-yl)-N-(3,5-dicyanophenyl)-5-oxopyrrolidine-2-carboxamide] |  |  |  | < 100 |
| CS(=O)(=O)c1cccc(N(C(=O)[C@@H]2CCC(=O)N2c2cc(C#N)ccn2)C(C(=O)NC2CCC(F)(F)CC2)c2ccccc2Cl)c1 (stereo partly drawn) [Compound 95, (2S)—N-(1-(2-Chlorophenyl)-2-((4,4-difluorocyclohexyl)amino)-2-oxoethyl)-1-(4-cyanopyridin-2-yl)-N-(3-(methylsulfonyl)phenyl)-5-oxopyrrolidine-2-carboxamide] |  |  |  | < 100 |
| N#Cc1ccnc(N2C(=O)OC[C@H]2C(=O)N(c2cncc(F)c2)[C@H](C(=O)NC2CCC(F)(F)CC2)c2ccccc2Cl)c1 [Compound 132, (S)—N—((S)-1-(2-Chlorophenyl)-2-((4,4-difluorocyclohexyl)amino)-2-oxoethyl)-3-(4-cyanopyri-din-2-yl)-N-(5-fluoropyridin-3-yl)-2-oxooxazolidine-4-carboxamide] |  |  |  | < 100 |
| N#Cc1ccnc(N2C(=O)CC[C@H]2C(=O)N(c2cccc(OCCO)c2)[C@H](C(=O)NC2CC(F)(F)C2)c2ccccc2Cl)c1 [Compound 130, (S)—N—((S)-1-(2-Chlorophenyl)-2-((3,3-difluorocyclobutyl)amino)-2-oxoethyl)-1-(4-cyanopyridin-2-yl)-N-(3-(2-hydroxyethoxy)phenyl)-5-oxopyrrolidine-2-carboxamide] |  |  |  | < 100 |
| N#Cc1ccnc(N2C(=O)[C@H](O)C[C@H]2C(=O)N(c2cc(F)cc(F)c2)[C@H](C(=O)NC2CCC(F)(F)CC2)c2ccccc2Cl)c1 [Compound 125, (2S,4R)—N—((S)-1-(2-Chlorophenyl)-2-(4,4-difluorocyclohexylamino)-2-oxoethyl)-1-(4-cyanopyridin-2-yl)-N-(3,5-difluorophenyl)-4-hydroxy-5-oxopyrrolidine-2-carboxamide] |  |  |  | < 100 |
| N#Cc1cc(F)cc(N(C(=O)[C@@H]2CCC(=O)N2c2cc(C#N)ccn2)[C@H](C(=O)NC2CC(F)(F)C2)c2ccccc2Cl)c1 [Compound 177, (S)—N—((S)-1-(2-Chlorophenyl)-2-(3,3-difluorocyclobutylamino)-2-oxoethyl)-N-(3-cyano-5-fluorophenyl)-1-(4-cyanopyridin-2-yl)-5-oxopyrrolidine-2-carboxamide] |  |  |  | < 100 |
| C[S@+]([O-])c1cc(F)cc(N(C(=O)[C@@H]2CCC(=O)N2c2cc(C#N)ccn2)[C@H](C(=O)NC2CC(F)(F)C2)c2ccccc2Cl)c1 [Compound 190, (S)—N—((S)-1-(2-Chlorophenyl)-2-(3,3-difluorocyclobutylamino)-2-oxoethyl)-1-(4-cyanopyridin-2-yl)-N-(3-fluoro-5-((S)-methylsulfinyl)phenyl)-5-oxopyrrolidine-2-carboxamide] |  |  |  | < 100 |
| O=C(NC1CC(F)(F)C1)[C@H](c1ccccc1Cl)N(C(=O)[C@@H]1COCC(=O)N1c1ncccn1)c1cccc(F)c1 [Compound 30, (S)—N—((S)-1-(2-chlorophenyl)-2-((3,3-difluorocyclobutyl)amino)-2-oxoethyl)-N-(3-fluorophenyl)-5-oxo-4-(pyrimidin-2-yl)morpholine-3-carboxamide] |  |  |  | 100 to 500 |
| O=C(NC1CC(F)(F)C1)[C@H](c1ccccc1Cl)N(C(=O)[C@@H]1CCC(=O)N1c1cscn1)c1cccc(F)c1 [Compound 43, (S)—N—((S)-1-(2-Chlorophenyl)-2-(3,3-difluorocyclobutylamino)-2-oxoethyl)-N-(3-fluorophenyl)-5-oxo-1-(thiazol-4-yl)pyrrolidine-2-carboxamide] |  |  |  | < 100 |
| N#Cc1ccnc(N2C(=O)CC[C@H]2C(=O)N(c2ccc3[nH]ccc3c2)[C@H](C(=O)NC2CC(F)(F)C2)c2ccccc2Cl)c1 [Compound 206, (S)—N—((S)-1-(2-Chlorophenyl)-2-((3,3-difluorocyclobutyl)amino)-2-oxoethyl)-1-(4-cyanopyridin-2-yl)-N-(1H-indol-5-yl)-5-oxopyrrolidine-2-carboxamide] |  |  |  | < 100 |
| CN(C)c1cccc(N(C(=O)[C@@H]2CCC(=O)N2c2cc(C#N)ccn2)[C@H](C(=O)NC2CC(F)(F)C2)c2ccccc2Cl)c1 [Compound 161, (S)—N—((S)-1-(2-Chlorophenyl)-2-(3,3-difluorocyclobutylamino)-2-oxoethyl)-1-(4-cyanopyri-din-2-yl)-N-(3-(dimethylamino)phenyl)-5-oxopyrrolidine-2-carboxamide] |  |  |  | < 100 |
| CN(C)S(=O)(=O)c1cccc(N(C(=O)[C@@H]2CCC(=O)N2c2cc(C#N)ccn2)[C@H](C(=O)NC2CC(F)(F)C2)c2ccccc2Cl)c1 [Compound 156, (S)—N—((S)-1-(2-Chlorophenyl)-2-(3,3-difluorocyclobutylamino)-2-oxoethyl)-1-(4-cyanopyri-din-2-yl)-N-(3-(N,N-dimethylsulfamoyl)phenyl)-5-oxopyrrolidine-2-carboxamide] |  |  |  | < 100 |
| CCOC(=O)CN1CC(=O)N(c2cc(C#N)ccn2)[C@H](C(=O)N(c2cc(F)cc(F)c2)[C@H](C(=O)NC2CC(F)(F)C2)c2ccccc2Cl)C1 [Compound 104] |  |  |  | < 100 |
| N#Cc1ccnc(N2C(=O)OCC[C@H]2C(=O)N(c2cc(F)cc(F)c2)[C@H](C(=O)NC2CCC(F)(F)CC2)c2ccccc2Cl)n1 [Compound 144, (S)—N—((S)-1-(2-Chlorophenyl)-2-((4,4-difluorocyclohexyl)amino)-2-oxoethyl)-3-(4-cyanopyrimidin-2-yl)-N-(3,5-difluorophenyl)-2-oxo-1,3-oxazinane-4-carboxamide] |  |  |  | < 100 |
